According to EP0498680A1, “New beta-amino-alpha-hydroxycarboxylic acids and their use” (Sankyo Company Limited, priority 1991, dated 1992):

Test system: HIV
Assay: Inhibition of HIV proliferation in CEM cells
Type: cell-based
Conditions: 1 µM (0.6 µg/ml) of the test compound, 1 week
Method: CEM cells were inoculated in growth medium as defined in a) above, to a density of 2 x 10⁴ cells/ml. The inoculum was then seeded with a similar volume of serial 1 : 3 dilutions of the viral stock [a filtered preparation of the 48-hour culture supernatant of Molt4/HTLVIIIB cells prepared as described in Test Example 3 a) above]. The seeded inoculum was then cultured at 37°C under a 5% carbon dioxide atmosphere in the presence of 1 µM of the test compound (compound no. 14). After 1 week, the culture was spun down and the supernatant was collected. HIV antigen in the supernatant was determined as described in b) above.

For “(2S,3S)-[3-(N-3′-Hydroxyquinoxaline-2′-carbonyl-L-asparaginyl)amino-2-hydroxy-4-phenylbutyryl]-L-proline t-butyl ester [Compound No. 14]”, the “spread of HIV (HIV antigen in the supernatant)” value was “sufficient to block the spread of HIV almost completely”.
